Where no end group is shown, it is not given here.
How the values were obtained:
[1] = tested on: Primary normal human keratinocytes (NHEK); experiment: LDH release cytotoxicity in keratinocytes; type: cell-based; settings: 24 h, increasing concentrations
Description: NHEKs (ThermoFisher) were cultured in EpiLife medium containing 60 μM CaCl2) (ThermoFisher) supplemented with 1× human keratinocyte growth supplement (ThermoFisher) and 1× Antibiotic Antimycotic (Millipore Sigma) at 37° C., 5% CO 2. All experiments performed on NHEKs were between passages 3 and 5 with cells at 70-80% confluency.

[2] = tested on: S. pseudintermedius ST71; experiment: Minimum inhibitory concentration, broth micro dilution; type: cell-based, Staphylococcus pseudintermedius; settings: synthetic peptides, 18 h incubation
Description: MIC values were determined using a broth micro dilution method. Bacterial cells were grown to mid-late log phase, to an OD600 nm value of roughly 1.0 for each bacterial strain and then normalized to 1×10^7 CFU/mL. The PSMβ peptides or butanol extracts were dissolved in DMSO to a stock concentration of 10 mg/ml. The stock concentrations of antibiotics that were water-soluble were prepared with H2O or 100% ethanol if water-insoluble. The 1×10^7 CFU/ml bacterial cultures (10 μl) were aliquoted into 96-well microtiter plates and mixed with 95 μL of media with or without 2-fold dilutions of the conditioned supernatant, PSMβ peptides, butanol extracts or antibiotics and incubated for 16-18 h at 30° C. with shaking at 250 rpm. Growth inhibition was determined by measuring the OD600 nm readings of each well using a microplate reader (SpectraMax iD3, Molecular Devices). The MIC of each bacterial strain was determined by the lowest peptide concentration that inhibited more than 80% bacterial growth.

| Compound | cytotoxicity by LDH release [1] | concentration at which S. pseudintermedius growth was inhibited [2] |
| --- | --- | --- |
| CC[C@H](C)[C@H](NC(=O)[C@H](Cc1c[nH]c2ccccc12)NC(=O)[C@H](CCCCN)NC(=O)[C@@H](NC(=O)[C@H](CC(C)C)NC(=O)[C@H](CC(=O)O)NC(=O)CNC(=O)[C@@H](NC(=O)[C@@H](NC(=O)[C@H](CO)NC(=O)[C@@H](NC(=O)[C@@H](NC(=O)[C@H](CC(=O)O)NC(=O)[C@H](C)NC(=O)[C@H](C)NC(=O)[C@H](CCSC)NC=O)[C@@H](C)CC)[C@@H](C)CC)[C@@H](C)O)[C@@H](C)CC)C(C)C)C(=O)N[C@H](C(=O)N[C@@H](CC(=O)O)C(=O)N[C@H](C(=O)N[C@H](C(=O)N[C@@H](CC(N)=O)C(=O)N[C@@H](CCCCN)C(=O)N[C@@H](Cc1ccccc1)C(=O)N[C@@H](CCCCN)C(=O)N[C@@H](CCCCN)C(=O)O)C(C)C)[C@@H](C)O)[C@@H](C)CC [PSMγ] | highly cytotoxic |  |
| Non-Formyl-MSKLTRVIVTSIMTVGFLTATLGLTAGNADAKLEGNGTLSQKQYQRLASQQF (H-MSKLTRVIVTSIMTVGFLTATLGLTAGNADAKLEGNGTLSQKQYQRLASQQF; listed as Staphylococcus felis) [EF-hand domain-containing peptide] |  | > 200 µg/mL |

— patent US12702686B2, “Antimicrobial therapy” (priority 2021, dated 2026)
